Reference: patent US7109197B2, “N-phenyl-4-(4-pyridyl)-2-pyrimidineamine derivatives” (Syngenta Crop Protection, Inc., priority 2000, dated 2006)

Experiments:
[1] = system: Septoria nodorum; test: Assay B-12: Effect against Septoria nodorum/wheat (Septoria leaf spot on wheat); assay type: in vivo; conditions: Septoria nodorum on wheat cv. Arina, 0.02% active substance, spray; for pest or weed control at 0.02 % strength: Parastagonospora nodorum, 264 h, read-out: B12 activity
Method: Assay B-12: Effect Against Septoria nodorum/Wheat (Septoria Leaf Spot on Wheat) 1 week old wheat plants cv. Arina are treated with a formulated test compound (0.02% active substance) in a spray chamber. One day after application wheat plants are inoculated by spraying a spore suspension (5×10^5 conidia/ml) on the test plants. After an incubation period of 1 day at 20° C. and 95% r.h. plants are kept for 10 days at 20° C. and 60% r.h. in a greenhouse. The disease incidence is assessed 11 days after inoculation.

[2] = system: Botrytis cinerea; test: Assay B-7: Botrytis cinerea/grape (Botrytis on grapes); assay type: in vivo; conditions: Botrytis cinerea on grape seedlings cv. Gutedel; 0.02% active substance, spray
Method: Assay B-7: Botrytis cinerea/Grape (Botrytis on Grapes) 5 week old grape seedlings cv. Gutedel are treated with the formulated testcompound (0.02% active substance) in a spray chamber. Two days after application grape plants are inoculated by spraying a spore suspension (1×10^6 conidia/ml) on the test plants. After an incubation period of 4 days at 21° C. and 95% r. h. in a greenhouse the disease incidence is assessed.

[3] = system: Botrytis cinerea; test: Assay B-8: Effect against Botrytis cinerea/tomato (Botrytis on tomatoes); assay type: in vivo; conditions: Botrytis cinerea on tomato cv. Roter Gnom; 0.02% active substance, spray
Method: Assay B-8: Effect Against Botrytis cinerea/Tomato (Botrytis on Tomatoes) 4 week old tomato plants cv. Roter Gnom are treated with the formulated testcompound 0.02% active substance) in a spray chamber. Two days after application tomato plants are inoculated by spraying a spore suspension (1×10^5 conidia/ml) on the test plants. After an incubation period of 4 days at 20° C. and 95% r. h. in a greenhouse the disease incidence is assessed.

[4] = system: Erysiphe graminis; test: Assay B-6: Effect against Erysiphe graminis on barley (powdery mildew); residual protective / systemic activity; assay type: in vivo; conditions: 0.02% active substance spray (residual) or 0.002% soil (systemic), variant not stated
Method: Assay B-6: Effect Against Erysiphe graminis on Barley (Powdery Mildew on Barley) a) Residual Protective Activity […] The infected plants are placed in a greenhouse at 22°. 12 days after infection, the fungal attack is evaluated. b) Systemic Activity […] […] 48 hours later, the plants are dusted with conidia of the fungus. The infected plants are placed in a greenhouse at 22° C. 12 days after infection, the disease incidence is evaluated.

[5] = system: Pyrenophora teres (Helminthosporium); test: Assay B-10: Effect against Pyrenophora teres (Helminthosporium)/barley (net blotch on barley); assay type: in vivo; conditions: Pyrenophora teres on barley cv. Regina, 0.02% active substance, spray; for pest or weed control at 0.02 % strength: 96 h, read-out: B10 activity
Method: Assay B-10: Effect Against Pyrenophora teres (Helminthosporium)/Barley (Net Blotch on Barley) 1 week old barley plants cv. Regina are treated with a formulated testcompound (0.02% active substance) in a spray chamber. Two days after application barley plants are inoculated by spraying a spore suspension (3×10^4 conidia/ml) on the test plants. After an incubation period of 2 days at 20° C. and 95% r.h. plants are kept for 2 days at 20° C. and 60% r.h. in a greenhouse. The disease incidence is assessed 4 days after inoculation.

[6] = system: Venturia inaegualis; test: Assay B-5: Residual protective activity against Venturia inaegualis on apples (scab on apple); assay type: in vivo; conditions: Venturia inaegualis on apple seedlings cv. McIntosh; 0.02% active substance, spray
Method: Assay B-5: Residual Protective Activity Against Venturia inaegualis on Apples (Scab on Apple) 4 week old apple seedlings cv. McIntosh are treated with the formulated testcompound (0.02% active substance) in a spray chamber. One day after application apple plants are inoculated by spraying a spore suspension (4×10^5 conidia/ml) on the test plants. After an incubation period of 4 days at 21° C. and 95% r. h. the plants are placed for 4 days at 21° C. and 60% r. h. in a greenhouse. After another 4 day incubation period at 21° C. and 95% r. h. the disease incidence is assessed.

[7] = system: Pyricularia oryzae; assay type: in vivo; conditions: Pyricularia oryzae on rice cv. Sasanishiki; 0.02% active substance, spray
[8] = system: Fusarium culmorum; assay type: in vivo; conditions: in vivo

| SMILES | B12 activity [1] | B7 activity [2] | B8 activity [3] | B6 activity [4] | B10 activity [5] | B5 activity [6] | B9 activity [7] | pest or weed control at 0.02 % strength [1] [%] | melting point [°C] | pest or weed control at 0.02 % strength [5] [%] | B11 activity [8] |
| --- | --- | --- | --- | --- | --- | --- | --- | --- | --- | --- | --- |
| CC(=O)OCC(C)Nc1cc(-c2ccnc(Nc3cccc(Cl)c3)n2)ccn1 (centres unmarked) [Compound 50] | + (the activity observed in the corresponding test system is 70% or more) | + (the activity observed in the corresponding test system is 70% or more) | + (the activity observed in the corresponding test system is 70% or more) | + (the activity observed in the corresponding test system is 70% or more) | + (the activity observed in the corresponding test system is 70% or more) | + (the activity observed in the corresponding test system is 70% or more) | + (the activity observed in the corresponding test system is 70% or more) |  |  |  |  |
| CN(C)c1cc(-c2ccnc(Nc3cccc(Cl)c3)n2)ccn1 [Compound 59] |  |  |  | + (the activity observed in the corresponding test system is 70% or more) |  |  |  | > 70 | 178 to 179 | > 70 |  |
| COCC(C)Nc1cc(-c2ccnc(Nc3cccc(Cl)c3)n2)cc(F)n1 (centres unmarked) [Compound 7] |  |  |  | + (the activity observed in the corresponding test system is 70% or more) | + (the activity observed in the corresponding test system is 70% or more) | + (the activity observed in the corresponding test system is 70% or more) |  |  |  |  |  |
| CC(C)=CCNc1cc(-c2ccnc(Nc3cccc(Cl)c3)n2)ccn1 [Compound 81] | + (the activity observed in the corresponding test system is 70% or more) |  | + (the activity observed in the corresponding test system is 70% or more) | + (the activity observed in the corresponding test system is 70% or more) | + (the activity observed in the corresponding test system is 70% or more) |  |  |  |  |  |  |
| Nc1cc(-c2ccnc(Nc3cccc(Cl)c3)n2)ccn1 [Compound 58] |  | + (the activity observed in the corresponding test system is 70% or more) | + (the activity observed in the corresponding test system is 70% or more) | + (the activity observed in the corresponding test system is 70% or more) |  | + (the activity observed in the corresponding test system is 70% or more) | + (the activity observed in the corresponding test system is 70% or more) | > 70 | 214 to 215 | > 70 |  |
| Cl.Clc1cccc(Nc2nccc(-c3ccnc(NC4CCOC4)c3)n2)c1 (centres unmarked) [Compound 125] | + (the activity observed in the corresponding test system is 70% or more) |  | + (the activity observed in the corresponding test system is 70% or more) |  | + (the activity observed in the corresponding test system is 70% or more) |  | + (the activity observed in the corresponding test system is 70% or more) |  |  |  |  |
| O=C(Nc1cc(-c2ccnc(Nc3cccc(Cl)c3)n2)ccn1)C(F)(F)F [Compound 63] |  | + (the activity observed in the corresponding test system is 70% or more) | + (the activity observed in the corresponding test system is 70% or more) |  |  | + (the activity observed in the corresponding test system is 70% or more) | + (the activity observed in the corresponding test system is 70% or more) | > 70 | 180 to 181 | > 70 |  |
| Clc1cccc(Nc2nccc(-c3ccnc(NCCCN4CCOCC4)c3)n2)c1 [Compound 8] |  |  | + (the activity observed in the corresponding test system is 70% or more) | + (the activity observed in the corresponding test system is 70% or more) |  |  |  |  |  |  |  |
| CC(CO)Nc1cc(-c2ccnc(Nc3cccc(Cl)c3)n2)ccn1 (centres unmarked) [Compound 39] | + (the activity observed in the corresponding test system is 70% or more) | + (the activity observed in the corresponding test system is 70% or more) | + (the activity observed in the corresponding test system is 70% or more) |  | + (the activity observed in the corresponding test system is 70% or more) |  | + (the activity observed in the corresponding test system is 70% or more) |  |  |  |  |
| OCCNc1cc(-c2ccnc(Nc3cccc(Cl)c3)n2)ccn1 [Compound 37] | + (the activity observed in the corresponding test system is 70% or more) | + (the activity observed in the corresponding test system is 70% or more) | + (the activity observed in the corresponding test system is 70% or more) | + (the activity observed in the corresponding test system is 70% or more) | + (the activity observed in the corresponding test system is 70% or more) | + (the activity observed in the corresponding test system is 70% or more) | + (the activity observed in the corresponding test system is 70% or more) |  |  |  |  |
| FC(F)(F)CNc1cc(-c2ccnc(Nc3cccc(Cl)c3)n2)ccn1 [Compound 103] |  |  |  | + (the activity observed in the corresponding test system is 70% or more) |  |  |  | > 70 | 222 to 223 | > 70 |  |
| COC(OC)C(C)Nc1cc(-c2ccnc(Nc3cccc(Cl)c3)n2)ccn1 (centres unmarked) [Compound 65] | + (the activity observed in the corresponding test system is 70% or more) | + (the activity observed in the corresponding test system is 70% or more) | + (the activity observed in the corresponding test system is 70% or more) | + (the activity observed in the corresponding test system is 70% or more) | + (the activity observed in the corresponding test system is 70% or more) | + (the activity observed in the corresponding test system is 70% or more) | + (the activity observed in the corresponding test system is 70% or more) |  |  |  |  |
| COCC(C)Nc1cc(-c2ccnc(Nc3cccc(OC(F)(F)C(F)F)c3)n2)ccn1 (centres unmarked) [Compound 5] | + (the activity observed in the corresponding test system is 70% or more) |  |  |  | + (the activity observed in the corresponding test system is 70% or more) |  |  |  |  |  | + (key: +: the activity observed in the corresponding test system is 70% or more) |
| Clc1cccc(Nc2nccc(-c3ccnc(NCCCn4ccnc4)c3)n2)c1 [Compound 43] | + (the activity observed in the corresponding test system is 70% or more) | + (the activity observed in the corresponding test system is 70% or more) | + (the activity observed in the corresponding test system is 70% or more) |  | + (the activity observed in the corresponding test system is 70% or more) |  | + (the activity observed in the corresponding test system is 70% or more) |  |  |  |  |
| Clc1cccc(Nc2nccc(-c3ccnc(NCCN4CCOCC4)c3)n2)c1 [Compound 20] | + (the activity observed in the corresponding test system is 70% or more) |  | + (the activity observed in the corresponding test system is 70% or more) | + (the activity observed in the corresponding test system is 70% or more) | + (the activity observed in the corresponding test system is 70% or more) |  |  |  |  |  |  |
